These results are taken from patent US4518586A, “GRF Analogs III” (The Salk Institute for Biological Studies, priority 1983, dated 1985).

Test [1] relates to cells of rat pituitary glands. Briefly: in vitro assay of growth hormone release from cultured rat pituitary cells, side-by-side with hpGRF(1-40)-OH standard. Type of test: cell-based. The note with it: for Comparison %: GH release at equimolar concentrations relative to synthetic hpGRF(1-40)-OH standard (100%), incubation 3 to 4 hours, ir GH by radioimmunoassay. The procedure:
To determine the effectiveness of the various synthetic peptides to promote the release of growth hormone, in vitro assays are carried out using synthetic hpGRF(1-40)-OH as a standard in side-by-side comparison with equimolar concentrations of the various other analogs and fragments synthesized. Cultures are used which include cells of rat pituitary glands removed some three to five days previously. Cultures which are considered optimal for the secretion of growth hormone are used for the comparative testing, in the general manner described in Vale et al. Endocrinology, 91, 562-572 (1972) and as more particularly described in Vale et al. Endocrinology, (1983), in press. Incubation with the substance to be tested is carried out for 3 to 4 hours, and aliquots of the culture medium are removed and processed to measure their contents in immunoreactive GH(ir GH) by a well-characterized radioimmunoassay.

For test [2], the system named is freely running normal male rats. Description: in vivo GH secretion after injection through indwelling catheter in FLA-63-pretreated rats. The note with it: male rats pretreated with FLA-63. More on the design: species or system rat. The procedure:
In addition to the in vitro tests for secretion of growth hormone, in vivo experiments inject the synthetic peptides through an indwelling catheter into freely running normal male rats after pretreating them with FLA-63, a dopamine hydroxylase inhibitor that suppresses spontaneous GH secretion without affecting the response to exogenous GRF. Blood samples are taken through the same catheter immediately prior to and 5 and 20 minutes after injections. […] Dosages between about 100 nanograms and about 50 micrograms of these peptides per Kg. of body weight are considered to be effective in causing GH secretion.

Square brackets hold non-standard residues; d marks the D form. Peptide text beside a SMILES is read from it. Nle = CCCC[C@H](N)C(=O)O

In test [1], `CCCC[C@H](NC(=O)[C@@H](NC(=O)[C@@H](CCC(=O)O)NC(=O)[C@H](Cc1c[nH]cn1)NC(=O)[C@H](CC(C)C)NC(=O)[C@H](CC(C)C)NC(=O)[C@H](CCCCN)NC(=O)[C@H](CCCNC(=N)N)NC(=O)[C@H](C)NC(=O)[C@H](Cc1ccc(O)cc1)NC(=O)[C@H](CC(C)C)NC(=O)[C@H](CCC(N)=O)NC(=O)CNC(=O)[C@H](CC(C)C)NC(=O)[C@@H](NC(=O)[C@H](CCCNC(=N)N)NC(=O)[C@H](CCCNC(=N)N)NC(=O)[C@H](Cc1ccc(O)cc1)NC(=O)[C@H](CO)NC(=O)[C@H](CO)NC(=O)[C@@H](NC(=O)[C@H](Cc1ccccc1)NC(=O)[C@@H](NC(=O)[C@H](C)NC(=O)[C@H](CC(=O)O)NC(=O)[C@H](C)NC(=O)[C@@H](N)Cc1c[nH]cn1)[C@@H](C)CC)[C@@H](C)O)[C@@H](C)CC)[C@@H](C)CC)C(=O)N[C@@H](CC(N)=O)C(=O)N[C@@H](CCCNC(=N)N)C(N)=O` [[D-Glu^25, Nle^27]-rGRF(1-29)-NH2, H-His-Ala-Asp-Ala-Ile-Phe-Thr-Ser-Ser-Tyr-Arg-Arg-Ile-Leu-Gly-Gln-Leu-Tyr- Ala-Arg-Lys-Leu-Leu-His-D-Glu-Ile-Nle-Asn-Arg-NH2] (H-HADAIFTSSYRRILGQLYARKLLH[dE]I[Nle]NR-NH2) gave a Comparison % of 125%.
The molecule `CCCC[C@H](NC(=O)[C@@H](NC(=O)[C@H](CCC(=O)O)NC(=O)[C@H](Cc1c[nH]cn1)NC(=O)[C@@H](CC(C)C)NC(=O)[C@H](CC(C)C)NC(=O)[C@H](CCCCN)NC(=O)[C@H](CCCNC(=N)N)NC(=O)[C@H](C)NC(=O)[C@H](Cc1ccc(O)cc1)NC(=O)[C@H](CC(C)C)NC(=O)[C@H](CCC(N)=O)NC(=O)CNC(=O)[C@H](CC(C)C)NC(=O)[C@@H](NC(=O)[C@H](CCCNC(=N)N)NC(=O)[C@H](CCCNC(=N)N)NC(=O)[C@H](Cc1ccc(O)cc1)NC(=O)[C@H](CO)NC(=O)[C@H](CO)NC(=O)[C@@H](NC(=O)[C@H](Cc1ccccc1)NC(=O)[C@@H](NC(=O)[C@H](C)NC(=O)[C@H](CC(=O)O)NC(=O)[C@H](C)NC(=O)[C@@H](N)Cc1c[nH]cn1)[C@@H](C)CC)[C@@H](C)O)[C@@H](C)CC)[C@@H](C)CC)C(=O)N[C@@H](CC(N)=O)C(=O)N[C@@H](CCCNC(=N)N)C(N)=O` [[D-Leu^23, Nle^27]-rGRF(1-29)-NH2, H-His-Ala-Asp-Ala-Ile-Phe-Thr-Ser-Ser-Tyr-Arg-Arg-Ile-Leu-Gly-Gln-Leu-Tyr- Ala-Arg-Lys-Leu-D-Leu-His-Glu-Ile-Nle-Asn-Arg-NH2] (H-HADAIFTSSYRRILGQLYARKL[dL]HEI[Nle]NR-NH2) registered a Comparison % in test [1] of 160%. In test [2] (GH levels in blood), the “duration compared with rGRF(1-29)-NH2” value was “substantially longer duration”. Also, in test [2] (blood samples prior to and 5 and 20 minutes after injection, radioimmunoassay), the “stimulation of the secretion of pituitary GH (GH levels in blood)” value is “powerful stimulators of the secretion of pituitary GH”.
On to [D-Leu^23, Nle^27 ]-hpGRF(1-29)-NH2, for which, in test [1] (in vitro GH secretion), the maximum effective concentration result is recorded as “about 1 nanomolar”.
